We go through four compounds from patent publication US20110287432A1, “SYSTEM AND METHOD FOR TAILORING NUCLEOTIDE CONCENTRATION TO ENZYMATIC EFFICIENCIES IN DNA SEQUENCING TECHNOLOGIES” (454 Life Science Corporation, priority 2010, published 2011).

The test system of one experiment is apyrase. The experiment can be described thus: Enzyme kinetics of apyrase across multiple nucleotides (Michaelis-Menten). Type of experiment: biochemical. Conditions: for Km: Michaelis constant of apyrase for the nucleotide species; for VApy-dNTP (estimated apyrase activity): Michaelis-Menten calculation, dTTP, α-thio-dATP, dCTP, dGTP at 40.3, 166.1, 16.3, 19.7 μM; for Vmax: maximum rate of apyrase for the nucleotide species; for Apyrase activity ratio: normalized to the value of dCTP. The text has this:
The nucleotide species specific steady-state apyrase concentration may be computed using what is referred to as the Michaelis-Menten kinetics to mathematically approximate the kinetic characteristics of an enzyme based upon the assumption that simple kinetic conditions exist. The Michaelis-Menten equation uses constant values that vary by nucleotide species and include the Michaelis constant KM and the maximum rate Vmax of enzyme activity in a reaction environment.
In the present example, apyrase is effectively exposed to only one type of nucleotide species at a given time due to the iterative nature of the sequencing reagent flows. The reaction rates between apyrase and each nucleotide species can be estimated using the following formula: […]
where [dNTP] is the concentration of dTTP, dATP, dCTP or dGTP.
Continuing with the present example, the nucleotide species concentrations used for the computation for dTTP, α-thio-dATP, dCTP and dGTP are 40.3, 166.1, 16.3 and 19.7 μM respectively in the reaction environment. It will be appreciated that the concentration value for α-thio-dATP is substantially higher than the concentrations of the other nucleotide species which is due to the modification that has an inhibitory effect upon the incorporation efficiency of a polymerase enzyme (i.e. thus a higher concentration improves the likelihood of polymerase incorporation) as well as an increased processing efficiency of the apyrase as illustrated in greater detail below. In some embodiments the more “natural” dATP species may be used in place of α-thio-dATP and may have a different value for nucleotide species concentration reflecting the higher efficiency of enzyme processing for that species. The estimated activities of apyrase from the Michaelis-Menten calculation towards the different nucleotide species are shown in the Table 2 below. It should again be noted that the calculated efficiency of apyrase to α-thio-dATP illustrated in Table 2 is substantially higher than for the other species and thus apyrase would be expected to process a higher concentration of α-thio-dATP in an efficient manner.

The next experiment relates to polymerase and apyrase. The experiment can be described thus: Sequencing of C. jejuni shotgun libraries, nucleotide-specific CAFIE fit of raw reads. Type of experiment: biochemical. Conditions: average over 200 reads. An excerpt:
In the present example, DNA Shotgun libraries of the genome C. jejuni were sequenced to calculate the nucleotide species concentrations optimized for polymerase and apyrase efficiencies. The second (TA) and the third (CG) columns of Table 4 show the relative percentage of T and A to C and G nucleotide species concentrations used in sequencing runs where a value for the 100% concentration may be based upon the calculated and normalized species relative ratio values from Table 3. For instance, using the figures from Table 3 100% of the G nucleotide species is 1.2 times greater the 100% of the C nucleotide species given the concentration ratio. Those of ordinary skill in the art will appreciate that C. jejuni is an AT rich genome generally meaning that there is a higher incidence of A and T nucleotide species in the genome composition than C and G nucleotide species. Thus, the relative percentages for TA and GC concentrations illustrated in FIG. 4 reflect that fact and typically would be different for a GC rich genome (i.e. the genome of T. thermophilus).
The average completion efficiency (i.e. to estimate incomplete extension) and carry forward values of each individual nucleotide species were inferred using a method described in detail below. The last column presents the average read lengths (RL) of the high quality reads obtained where increased read length correlates to an increased level of optimization of the combination of each nucleotide species concentration that is balanced for the species specific incorporation efficiency of polymerase to degradation efficiency of apyrase.
The average completion efficiencies and carry forward values of the individual nucleotide species were inferred using nucleotide-specific CAFIE (carry forward and incompletion extension) fit. For example, the sequencing process produces raw sequence reads typically processed by an embodiment of Image and Signal Processing software such as application 135. In the present example, application 135 maps (also referred to as an alignment by those of ordinary skill in the art) the raw sequence reads generated to a reference genome sequence associated with the samples sequenced, such as a consensus reference sequence of C. jejuni. As will be evident to those of ordinary skill, mapping/aligning the raw uncorrected sequence reads to a reference sequence can be employed to determine where CAFIE error occurs and determination of incidence of nucleotide species specific CAFIE error.
In the presently described example application 135 mapped 200 uncorrected sequence reads, represented as flowgrams, to the reference genome sequence and the first 100 iterations of the nucleotide flows considered for determination of optimal concentration of each of the nucleotide species by inferring the completion efficiencies and carry forward values. The detected signal strengths of each of the four nucleotide species were first normalized using the median 1-mer value for all nucleotide species. The term “1-mer value” as used herein generally refers to a value reflecting the degree of detected signal in response to an incorporation of a nucleotide species at a single sequence position which should be substantially the same for each of the nucleotide species. Typically this the 1-mer value is easiest to calculate from detected signals obtained at the beginning of a sequencing run of a template nucleic acid molecule because the key element in an adaptor includes a single representative of each nucleotide species in a key element at a known position (i.e. a TCAG key element) and thus it is expected that only a single nucleotide of each species is incorporated at each of the four sequence positions.
The completion efficiency and carry forward values illustrated in Table 4 can be inferred using a three-stage minimization process for each individual sequence read. […]

[1] abbreviates: Run 1, relative concentration TA 120%, CG 140%.
The mark [2] stands for this setting: Run 2, relative concentration TA 140%, CG 140%.
[3] abbreviates: Run 3, relative concentration TA 120%, CG 160%.

Consider `Nc1ccn([C@H]2C[C@H](O)[C@@H](COP(=O)(O)OP(=O)(O)OP(=O)(O)O)O2)c(=O)n1` [dCTP], for which, in the experiment with apyrase, the Michaelis constant (Km) (in general, the concentration of substrate that gives half-maximal velocity) turned out to be 76.5 µM; the “VApy-dNTP (estimated apyrase activity)” value is recorded as 31.7 μM/10 min; the Vmax worked out at 250.0 μM/10 min; the Apyrase activity ratio turned out to be 1.0. In addition, in the experiment with polymerase and apyrase (setting [1]), the average carry forward was found to be 0.0062 and the average completion efficiency is 0.9988. Besides, in the experiment on polymerase and apyrase (setting [2]), the average carry forward was 0.0058 and the average completion efficiency turned out to be 0.9986. In addition, in the experiment with polymerase and apyrase (setting [3]), the average carry forward turned out to be 0.0065 and the average completion efficiency is recorded as 0.9991.

In the case of `Nc1nc2c(ncn2[C@H]2C[C@H](O)[C@@H](COP(=O)(O)OP(=O)(O)OP(=O)(O)O)O2)c(=O)[nH]1` [dGTP], in the experiment with apyrase, the Km stood at 8.1 µM, the “VApy-dNTP (estimated apyrase activity)” value is listed as 51.2 μM/10 min, the Vmax is given as 47.4 μM/10 min and the Apyrase activity ratio is 1.6. Further, in the experiment with polymerase and apyrase (setting [1]), the average carry forward is listed as 0.0048 and the average completion efficiency was 0.9990. In the experiment on polymerase and apyrase (setting [2]), the average carry forward came out at 0.0075 and the average completion efficiency came out at 0.9992. Also, in the experiment with polymerase and apyrase (setting [3]), the average carry forward was 0.0057 and the average completion efficiency turned out to be 0.9994.

On to `Cc1cn([C@H]2C[C@H](O)[C@@H](COP(=O)(O)OP(=O)(O)OP(=O)(O)O)O2)c(=O)[nH]c1=O` [dTTP], for which, in the experiment on apyrase, the Michaelis-Menten constant (Km) worked out at 107 µM, the “VApy-dNTP (estimated apyrase activity)” value is listed as 80.4 μM/10 min, the Vmax came to 294.1 μM/10 min and the Apyrase activity ratio is listed as 2.5. Besides, in the experiment with polymerase and apyrase (setting [1]), the average carry forward stood at 0.0006 and the average completion efficiency was determined as 0.9968. Moreover, in the experiment on polymerase and apyrase (setting [2]), the average carry forward was 0.0013 and the average completion efficiency came to 0.9975. In the experiment with polymerase and apyrase (setting [3]), the average carry forward is on record as 0.0008 and the average completion efficiency was found to be 0.9959.

Turning to `Nc1ncnc2c1ncn2[C@H]1C[C@H](O)[C@@H](COP(O)(=S)OP(=O)(O)OP(=O)(O)O)O1` (stereo partly drawn) [α-thio-dATP], in the experiment on apyrase, the Km turned out to be 115 µM, the “VApy-dNTP (estimated apyrase activity)” value was 137.5 μM/10 min, the Vmax was 232.6 μM/10 min and the Apyrase activity ratio was found to be 4.3. In the experiment on polymerase and apyrase (setting [1]), the average carry forward is recorded as 0.0035 and the average completion efficiency was 0.9977. For the same compound, in the experiment on polymerase and apyrase (setting [2]), the average carry forward was determined as 0.0033 and the average completion efficiency worked out at 0.9971. In the experiment on polymerase and apyrase (setting [3]), the average carry forward was found to be 0.0043 and the average completion efficiency came to 0.9978.
